Results: EP4117701B1, “COMPOSITIONS FOR THE PREVENTION AND/OR TREATMENT OF BENIGN PROSTATIC HYPERTROPHY (BPH)” (IDI Integratori Dietetici Italiani S.r.l., priority 2020, dated 2021)

Assays:
[1] = in vitro; format: cell-based; settings: human, lncap cells
Method: The cytotoxic activity of the considered plant extracts was evaluated in a human tumour prostate cell line (LNCaP). […] The treatment was prolonged for 6 hours, period of time corresponding to the overall duration of the pre-treatment and of post-treatment thereto the cells were subjected for the subsequent evaluation of the anti-inflammatory activity. At the end of the incubation period, the vitality of the prostate cells was evaluated by using the assay MTS, based upon the reduction of the compound MTS tetrazolium by the vital cells to generate a form of coloured formazan, which can be quantified by measuring the absorbance at 490-500 nm thereof.

[2] = system: human prostate cell line (LNCaP); test: Cytotoxicity of plant extracts, MTS assay, 24 hours; format: cell-based; settings: extracts 0 to 1000 µg/mL (TEUPOL10 0 to 1500 µg/mL), Dutasteride 0 to 7.93 µg/mL
Method: The cytotoxic activity of considered plant extracts was evaluated in a human prostate cell line (LNCaP). The prostate cells were treated with growing concentrations of the plant extracts (from 0 to 1000 µg/mL for the extract of B. Serrata and S. Repens, from 0 to 1500 µg/mL for TEUPOL10) and of the positive control Dutasteride (from 0 µg/mL to 7.93 µg/mL). The treatment was prolonged for 24 hours, time corresponding to the overall duration of the experiments related to PSA and to 5-α-reductase. At the end of the incubation period, the vitality of the prostate cells was evaluated by using the assay MTS, based upon the reduction of the compound MTS tetrazolium by the vital cells to generate a coloured form, which can be quantified by measuring the absorbance thereof at 490-500 nm.

Compound | MCC at 6 h [1] | adverse effect on vitality of the prostate cells [2]
O=C(O)Cc1ccccc1Nc1c(Cl)cccc1Cl [Diclofenac] | 80 µg/mL | –
C[C@]12C=CC(=O)N[C@@H]1CC[C@@H]1[C@@H]2CC[C@]2(C)[C@@H](C(=O)Nc3cc(C(F)(F)F)ccc3C(F)(F)F)CC[C@@H]12 [Dutasteride] | – | No adverse effect
